Where “and” joins values, the source holds several entries; their conditions need not be identical. Equal values may be shown once.
Legend:
Assay type in all cases: functional, Homo sapiens
Parameters in all cases: dose or concentration left out as unconfirmed
Colon cancer organoid [1] = assay: Image-based profiling of donated chemical probes and chemogenomic kinase set in O09 CRC organoid. Image analysis is performed on the sum area metric, and the data were normalized to the DMSO control. After imaging the organoid viability is measured using the OneGloEX Luciferase Assay System. The normalized viability data and sum area are reported.
Colon cancer organoid [2] = assay: Image-based profiling of donated chemical probes and chemogenomic kinase set in O21 CRC organoid. Image analysis is performed on the sum area metric, and the data were normalized to the DMSO control. After imaging the organoid viability is measured using the OneGloEX Luciferase Assay System. The normalized viability data and sum area are reported.
Colon cancer organoid [3] = assay: Image-based profiling of donated chemical probes and chemogenomic kinase set in O06 CRC organoid. Image analysis is performed on the sum area metric, and the data were normalized to the DMSO control. After imaging the organoid viability is measured using the OneGloEX Luciferase Assay System. The normalized viability data and sum area are reported.

Row | Compound | Cell Viability (Colon cancer organoid [1]; Replication number 1) | Cell Viability (Colon cancer organoid [1]; Replication number 2) | Cell Viability (Colon cancer organoid [2]; Replication number 1) | Cell Viability (Colon cancer organoid [2]; Replication number 2) | Cell Viability (Colon cancer organoid [3]; Replication number 1) | Cell Viability (Colon cancer organoid [3]; Replication number 2)
1 | NS(=O)(=O)c1cc(NC(=O)C2(c3ccccc3Cl)CC2)ccc1Oc1cccc(Cl)c1 [BAY-207] | 172.466% and 128.537% | 110.661% and 134.648% | 111.619% and 128.655% | 96.7656% and 94.898% | 85.045% and 103.044% | 47.3713% and 82.6769%
2 | COc1cc(C)c(Sc2cnc(NC(=O)c3ccc(CNC(C)C(C)(C)C)cc3)s2)cc1C(=O)N1CCN(C(C)=O)CC1 (stereo unspecified) | 101.639% and 97.9897% | 78.5606% and 100.962% | 74.3447% and 68.0139% | 84.4374% and 89.8165% | 76.6912% and 109.056% | 80.9572% and 86.581%
3 | Cn1cc(C2=C(c3cn(C4CCN(Cc5ccccn5)CC4)c4ccccc34)C(=O)NC2=O)c2ccccc21 [ENZASTAURIN] | 88.965% and 63.5811% | 82.186% and 57.4996% | 107.446% and 117.631% | 96.9547% and 121.483% | 30.0951% and 84.3511% | 45.1765% and 67.455%
4 | N#CN1CC[C@@H](C(=O)Nc2nc3c(s2)CN(C(=O)CN=[N+]=[N-])CC3)C1 [JYQ88] | 58.2871% and 66.775% | 121.196% and 102.102% | 106.224% and 86.2132% | 132.659% and 94.3236% | 45.8886% and 74.332% | 68.3691% and 90.3412%
5 | Cl.Cl.c1ccc([C@@H]2C[C@H]2NC2CCNCC2)cc1 | 165.336% and 102.473% | 183.388% and 100.348% | 139.321% and 134.03% | 128.492% and 116.527% | 175.971% and 140.859% | 170.528% and 119.251%
6 | COCC(=O)NC/C=C/c1ccc2ncnc(Nc3ccc(Oc4ccc(C)nc4)c(C)c3)c2c1 [CP-724714] | 68.0715% and 78.0427% | 150.035% and 112.57% | 88.8144% and 89.7561% | 117.053% and 106.513% | 34.9461% and 62.9851% | 41.6567% and 67.0437%
7 | Cl.Cl.Cl.c1ccc(N2CCN(Cc3nc4ccccc4[nH]3)CC2)nc1 | 118.127% and 116.353% | 87.0048% and 88.7915% | 123.058% and 103.622% | 81.1139% and 93.8775% | 75.342% and 94.3794% | 106.955% and 116.079%
8 | Cc1c(Nc2ccc(S(=O)(=O)N3CCN(C)CC3)cc2F)nc2ccc(-c3cnn(C4CC4)c3)cn2c1=O | 191.117% and 102.241% | 170.931% and 98.6379% | 111.388% and 118.746% | 91.8423% and 96.6587% | 155.776% and 116.215% | 128.897% and 94.1583%
9 | CCn1c(-c2nc3cc(C(=O)N4CCCC(N)C4)ccc3n2C)cc2ccccc21.Cl (stereo unspecified) | 117.35% and 104.328% | 180.446% and 129.427% | 104.488% and 105.813% | 105.345% and 85.3819% | 210.545% and 138.685% | 140.649% and 97.743%
10 | COc1cccc2c1c(O)c(C(=O)N(C)c1ccc(C(F)(F)F)cc1)c(=O)n2C [TASQUINIMOD] | 111.782% and 95.2859% | 96.4426% and 87.5198% | 88.1859% and 108.165% | 81.4636% and 102.566% | 48.5879% and 75.1409% | 109.678% and 108.736%
11 | CC(C)(O)c1cncc(-c2nc3ccc(F)cc3n2C2CC2)c1 [MSD-CYP11B2] | 85.3446% and 107.103% | 121.971% and 103.489% | 108.022% and 122.772% | 100.134% and 120.326% | 79.0545% and 113.441% | 106.294% and 130.706%

Source: ChEMBL document CHEMBL5724558, “Image-based profiling of drug vulnerabilities in CRC organoids” (2024)
